In patent US20240376094A2, “SELECTIVE BCL-XL PROTAC COMPOUNDS AND METHODS OF USE” (Les Laboratoires Servier, priority 2021, published 2024):

Tests used:
[1] = tested on: EBC-1 lung cancer cell line; assay: EBC-1 cell proliferation, CellTiter-Glo assay; type: cell-based; conditions: Homo sapiens, 120 h; Ebc-1 cell viability, CTG assay, 5 days of treatment; read-out: CTG 5 day Ebc1 GI50
Summary of the method: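 CellTiter-Glo read-out after 5-day compound treatment, normalised to untreated cells, with GI50 derived by four-parameter logistic regression. Ten concentrations spanning 0.508 nM–10 μM were added to 1000 EBC-1 cells per well the day after seeding. Assays required at least one cell doubling versus Day 0.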

HiBiT-tagged BCL-xL = target: T1, HiBiT-tagged BCL-xL (Homo sapiens, UniProt Q07817); assay: NCI-H1650 BCL-xL protein levels, Nano-Glo HiBiT Lytic Detection; type: cell-based; conditions: NCI-H1650 expressing HiBiT-tagged BCL-xL, overnight incubation, read-out: Bcl-xl HIBIT NCIH1650 DC50
T1 construct: expressed in transfected cells; host or cells: NCI-H1650 (ATCC No. CRL-5883), engineered HiBiT cell line
T1 sequence (Q07817 whole entry): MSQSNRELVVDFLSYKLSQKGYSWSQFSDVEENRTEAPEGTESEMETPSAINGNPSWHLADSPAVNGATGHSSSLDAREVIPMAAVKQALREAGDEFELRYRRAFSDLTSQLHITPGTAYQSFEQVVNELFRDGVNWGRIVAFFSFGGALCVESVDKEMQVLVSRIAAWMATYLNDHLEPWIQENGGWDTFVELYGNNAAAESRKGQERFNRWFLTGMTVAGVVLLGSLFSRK
Summary of the method: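 HiBiT luminescence after cell lysis with LgBiT/furimazine reagent reported BCL-xL levels, expressed relative to untreated wells and fitted with a four-parameter logistic equation. Engineered NCI-H1650 cells were exposed overnight at 37° C to compound at final 0.508 nM-10 μM (10 points, triplicate plates).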

Row | Structure (SMILES) | GI50 [1] [nM] | DC50 (HiBiT-tagged BCL-xL) [nM]
1 | Cc1ncsc1-c1ccc([C@H](C)NC(=O)[C@@H]2C[C@@H](O)CN2C(=O)[C@@H](NC(=O)CC23CC4CC(C2)CC(CC(=O)N2CCN(CC#Cc5ccc(OCCCc6sc(N7CCCc8c7nnc(Nc7nc9ccccc9s7)c8C)nc6C(=O)O)c(F)c5)CC2)(C4)C3)C(C)(C)C)cc1 [Example 42, 2-(3-(benzo[d]thiazol-2-ylamino)-4-methyl-6,7-dihydropyrido [2,3-c]pyridazin-8(5H)-yl)-5-(3-(2-fluoro-4-(3-(4-(2-((3S,5R)-3-(2-(((S)-1-((2S,4R)-4-hydroxy-2-(((S)-1-(4-(4-methylthiazol-5-yl)phenyl)ethyl)carbamoyl)pyrrolidin-1-yl)-3,3-dimethyl-1-oxobutan-2-yl)amino)-2-oxoethyl)adamantan-1-yl)acetyl)piperazin-1-yl)prop-1-yn-1-yl)phenoxy)propyl)thiazole-4-carboxylic acid] | 21 | > 1670
2 | Cc1ncsc1-c1ccc([C@H](C)NC(=O)[C@@H]2C[C@@H](O)CN2C(=O)[C@@H](NC(=O)CCCCCCCCN(C)CCOC23CC4(C)CC(C)(CC(Cn5ncc(-c6ccc(N7CCCc8c7nnc(Nc7nc9ccccc9s7)c8C)nc6C(=O)O)c5C)(C4)C2)C3)C(C)(C)C)cc1 [Example 5, 6-[3-(1,3-benzothiazol-2-ylamino)-4-methyl-6,7-dihydro-5H-pyrido[2,3-c]pyridazin-8-yl]-3-[1-[[3-[2-[[9-[[(1S)-1-[(2S,4R)-4-hydroxy-2-[[(1S)-1-[4-(4-methylthiazol-5-yl)phenyl]ethyl]carbamoyl]pyrrolidine-1-carbonyl]-2,2-dimethyl-propyl]amino]-9-oxo-nonyl]-methyl-amino]ethoxy]-5,7-dimethyl-1-adamantyl]methyl]-5-methyl-pyrazol-4-yl]pyridine-2-carboxylic acid] | 23 | 2
3 | Cc1ncsc1-c1ccc(CNC(=O)[C@@H]2C[C@@H](O)CN2C(=O)[C@@H](NC(=O)CCCCCCCCCCC(=O)N2CCN(CC#Cc3ccc(OCCCc4sc(N5CCCc6c5nnc(Nc5nc7ccccc7s5)c6C)nc4C(=O)O)c(F)c3)CC2)C(C)(C)C)cc1 [Example 48, 2-(3-(benzo[d]thiazol-2-ylamino)-4-methyl-6,7-dihydropyrido [2,3-c]pyridazin-8(5H)-yl)-5-(3-(2-fluoro-4-(3-(4-(12-(((S)-1-((2S,4R)-4-hydroxy-2-((4-(4-methylthiazol-5-yl)benzyl)carbamoyl)pyrrolidin-1-yl)-3,3-dimethyl-1-oxobutan-2-yl)amino)-12-oxododecanoyl)piperazin-1-yl)prop-1-yn-1-yl)phenoxy)propyl)thiazole-4-carboxylic acid] | 12 | 1
4 | Cc1ncsc1-c1ccc(CNC(=O)[C@@H]2C[C@@H](O)CN2C(=O)[C@@H](NC(=O)CCCCCCC(=O)N2CCN(CC#Cc3ccc(OCCCc4sc(N5CCCc6c5nnc(Nc5nc7ccccc7s5)c6C)nc4C(=O)O)c(F)c3)CC2)C(C)(C)C)cc1 [Example 33, 2-(3-(benzo[d]thiazol-2-ylamino)-4-methyl-6,7-dihydropyrido [2,3-c]pyridazin-8(5H)-yl)-5-(3-(2-fluoro-4-(3-(4-(8-(((S)-1-((2S,4R)-4-hydroxy-2-((4-(4-methylthiazol-5-yl)benzyl)carbamoyl)pyrrolidin-1-yl)-3,3-dimethyl-1-oxobutan-2-yl)amino)-8-oxooctanoyl)piperazin-1-yl)prop-1-yn-1-yl)phenoxy)propyl) thiazole-4-carboxylic acid] | 33 | > 1670
5 | Cc1ncsc1-c1ccc([C@H](C)NC(=O)[C@@H]2C[C@@H](O)CN2C(=O)[C@@H](NC(=O)CCCC(=O)N2CCN(CC#Cc3ccc(OCCCc4sc(N5CCCc6c5nnc(Nc5nc7ccccc7s5)c6C)nc4C(=O)O)c(F)c3)CC2)C(C)(C)C)cc1 [Example 35, 2-(3-(benzo[d]thiazol-2-ylamino)-4-methyl-6,7-dihydropyrido [2,3-c]pyridazin-8(5H)-yl)-5-(3-(2-fluoro-4-(3-(4-(5-(((S)-1-((2S,4R)-4-hydroxy-2-(((S)-1-(4-(4-methylthiazol-5-yl)phenyl)ethyl)carbamoyl)pyrrolidin-1-yl)-3,3-dimethyl-1-oxobutan-2-yl)amino)-5-oxopentanoyl)piperazin-1-yl)prop-1-yn-1-yl)phenoxy)propyl)thiazole-4-carboxylic acid] | 19 | > 1670
6 | Cc1ncsc1-c1ccc([C@H](C)NC(=O)[C@@H]2C[C@@H](O)CN2C(=O)[C@@H](NC(=O)CCCCCCCCCCCCCCCN(C)CCOC23CC4(C)CC(C)(CC(Cn5ncc(-c6ccc(N7CCCc8c7nnc(Nc7nc9ccccc9s7)c8C)nc6C(=O)O)c5C)(C4)C2)C3)C(C)(C)C)cc1 [Example 1, 6-[3-(1,3-benzothiazol-2-ylamino)-4-methyl-6,7-dihydro-5H-pyrido[2,3-c]pyridazin-8-yl]-3-[1-[[3-[2-[[16-[[(1S)-1-[(2S,4R)-4-hydroxy-2-[[(1S)-1-[4-(4-methylthiazol-5-yl)phenyl]ethyl]carbamoyl]pyrrolidine-1-carbonyl]-2,2-dimethyl-propyl]amino]-16-oxo-hexadecyl]-methyl-amino]ethoxy]-5,7-dimethyl-1-adamantyl]methyl]-5-methyl-pyrazol-4-yl]pyridine-2-carboxylic acid] | 5 | 1
7 | Cc1ncsc1-c1ccc([C@H](C)NC(=O)[C@@H]2C[C@@H](O)CN2C(=O)[C@@H](NC(=O)CCCCCCCN(C)CCOC23CC4(C)CC(C)(CC(Cn5ncc(-c6ccc(N7CCCc8c7nnc(Nc7nc9ccccc9s7)c8C)nc6C(=O)O)c5C)(C4)C2)C3)C(C)(C)C)cc1 [Example 6, 6-[3-(1,3-benzothiazol-2-ylamino)-4-methyl-6,7-dihydro-5H-pyrido[2,3-c]pyridazin-8-yl]-3-[1-[[3-[2-[[8-[[(1S)-1-[(2S,4R)-4-hydroxy-2-[[(1S)-1-[4-(4-methylthiazol-5-yl)phenyl]ethyl]carbamoyl]pyrrolidine-1-carbonyl]-2,2-dimethyl-propyl]amino]-8-oxo-octyl]-methyl-amino]ethoxy]-5,7-dimethyl-1-adamantyl]methyl]-5-methyl-pyrazol-4-yl]pyridine-2-carboxylic acid] | 13 | 3
8 | Cc1ncsc1-c1ccc(CNC(=O)C2C[C@@H](O)CN2C(=O)C(NC(=O)CCCCCC(=O)N2CCN(CC#Cc3ccc(OCCCc4sc(N5CCCc6c5nnc(Nc5nc7ccccc7s5)c6C)nc4C(=O)O)c(F)c3)CC2)C(C)(C)C)cc1 (stereo in doubt) [Example 15, 2-[3-(1,3-benzothiazol-2-ylamino)-4-methyl-6,7-dihydro-5H-pyrido[2,3-c]pyridazin-8-yl]-5-[3-[2-fluoro-4-[3-[4-[7-[[(1S)-1-[(2S,4R)-4-hydroxy-2-[[4-(4-methylthiazol-5-yl)phenyl]methylcarbamoyl]pyrrolidine-1-carbonyl]-2,2-dimethyl-propyl]amino]-7-oxo-heptanoyl]piperazin-1-yl]prop-1-ynyl]phenoxy]propyl] thiazole-4-carboxylic acid] | 21 | > 1670
9 | Cc1ncsc1-c1ccc([C@H](C)NC(=O)[C@@H]2C[C@@H](O)CN2C(=O)[C@@H](NC(=O)CCCCCCCCCCCN2CCN(CC#Cc3ccc(OCCCc4sc(N5CCCc6c5nnc(Nc5nc7ccccc7s5)c6C)nc4C(=O)O)c(F)c3)CC2)C(C)(C)C)cc1 [Example 51, 2-(3-(benzo[d]thiazol-2-ylamino)-4-methyl-6,7-dihydropyrido [2,3-c]pyridazin-8(5H)-yl)-5-(3-(2-fluoro-4-(3-(4-(12-(((S)-1-((2S,4R)-4-hydroxy-2-(((S)-1-(4-(4-methylthiazol-5-yl)phenyl)ethyl)carbamoyl)pyrrolidin-1-yl)-3,3-dimethyl-1-oxobutan-2-yl)amino)-12-oxododecyl)piperazin-1-yl)prop-1-yn-1-yl)phenoxy)propyl)thiazole-4-carboxylic acid] | 1 | 0.3
10 | Cc1ncsc1-c1ccc([C@H](C)NC(=O)[C@@H]2C[C@@H](O)CN2C(=O)[C@@H](NC(=O)CCCCCCCCCCC(=O)N2CCN(CC#Cc3ccc(OCCCc4sc(N5CCCc6c5nnc(Nc5nc7ccccc7s5)c6C)nc4C(=O)O)c(F)c3)CC2)C(C)(C)C)cc1 [Example 46, 2-(3-(benzo[d]thiazol-2-ylamino)-4-methyl-6,7-dihydropyrido [2,3-c]pyridazin-8(5H)-yl)-5-(3-(2-fluoro-4-(3-(4-(12-(((S)-1-((2S,4R)-4-hydroxy-2-(((S)-1-(4-(4-methylthiazol-5-yl)phenyl)ethyl)carbamoyl)pyrrolidin-1-yl)-3,3-dimethyl-1-oxobutan-2-yl)amino)-12-oxododecanoyl)piperazin-1-yl)prop-1-yn-1-yl)phenoxy)propyl)thiazole-4-carboxylic acid] | 7 | 2
11 | Cc1ncsc1-c1ccc([C@H](C)NC(=O)[C@@H]2C[C@@H](O)CN2C(=O)[C@@H](NC(=O)CCCCCCCCCCC(=O)N2CCN(CCOC34CC5(C)CC(C)(CC(Cn6ncc(-c7ccc(N8CCCc9c8nnc(Nc8nc%10ccccc%10s8)c9C)nc7C(=O)O)c6C)(C5)C3)C4)CC2)C(C)(C)C)cc1 [Example 47, 6-(3-(benzo[d]thiazol-2-ylamino)-4-methyl-6,7-dihydropyrido [2,3-c]pyridazin-8(5H)-yl)-3-(1-(((1r,3s,5R,7S)-3-(2-(4-(12-(((S)-1-((2S,4R)-4-hydroxy-2-(((S)-1-(4-(4-methylthiazol-5-yl)phenyl)ethyl)carbamoyl)pyrrolidin-1-yl)-3,3-dimethyl-1-oxobutan-2-yl)amino)-12-oxododecanoyl)piperazin-1-yl)ethoxy)-5,7-dimethyladamantan-1-yl)methyl)-5-methyl-1H-pyrazol-4-yl)picolinic acid] | 76 | 9
